From ChEMBL document CHEMBL1201862, “PubChem BioAssay data set” (2004)
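Interpolation was linear, between the two tested concentrations surrounding the appropriate level; five concentrations were tested over 48 hours in 96-well plates. At the GI50, growth is halved.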 Activity calls are given as the source filed them. Cut-off read from the data, not from the text of the source: active = GI50 up to about 1.1 µM and inactive = higher.

What was measured:
Experiment in all cases: growth of human tumour cells (NCI), 48 h
A498 = tested on: A498
MOLT-4 = tested on: MOLT-4
MDA-MB-231 = tested on: MDA-MB-231
OVCAR-5 = tested on: OVCAR-5
SNB-19 = tested on: SNB-19
A549 = tested on: A549
SF-539 = tested on: SF-539
SK-MEL-5 = tested on: SK-MEL-5
K562 = tested on: K562
SF-295 = tested on: SF-295
HT-29 = tested on: HT-29
SNB-75 = tested on: SNB-75
CCRF-CEM = tested on: CCRF-CEM
TK-10 = tested on: TK-10
UACC-62 = tested on: UACC-62
786-0 = tested on: 786-0
HL-60 = tested on: HL-60
HCC 2998 = tested on: HCC 2998
OVCAR-4 = tested on: OVCAR-4
SR = tested on: SR

Measured: GI50

CCOc1cc2c(cc1O)CC[C@@H]1[C@@H]2CC[C@]2(C)C(N)CC[C@@H]12 (some centres not stated)
inactive: A498 5.52 µM | MOLT-4 5.93 µM | MDA-MB-231 2.12 µM | OVCAR-5 5.86 µM | SNB-19 4.83 µM | A549 3.3 µM | SF-539 2.36 µM | SK-MEL-5 3.56 µM | K562 3.89 µM | SF-295 3.24 µM | HT-29 2.44 µM | SNB-75 2.1 µM | CCRF-CEM 1.73 µM | TK-10 9.2 µM | UACC-62 3.91 µM | 786-0 3.5 µM | HL-60 1.42 µM | HCC 2998 2.22 µM | OVCAR-4 19.3 µM

C=C1[C@@H](OC(C)=O)[C@H]2[C@@H](OC(C)=O)[C@@](C)(OC(C)=O)C[C@]2(OC(C)=O)C(=O)[C@@H](C)/C=C/C(C)(C)C(=O)C[C@H]1OC(C)=O
inactive: MOLT-4 > 100 µM | MDA-MB-231 > 100 µM | OVCAR-5 > 100 µM | SNB-19 > 100 µM | A549 > 100 µM | SF-539 > 100 µM | SK-MEL-5 > 100 µM | K562 > 100 µM | SF-295 > 100 µM | HT-29 36.6 µM | SNB-75 > 100 µM | CCRF-CEM 60.3 µM | TK-10 > 100 µM | UACC-62 83.8 µM | 786-0 > 100 µM | HCC 2998 > 100 µM | OVCAR-4 35.2 µM

O=C(NNS(=O)(=O)c1ccccc1)c1cccnc1
inactive: A498 > 100 µM | MOLT-4 > 100 µM | MDA-MB-231 > 100 µM | OVCAR-5 > 100 µM | SNB-19 > 100 µM | A549 > 100 µM | SF-539 > 100 µM | SK-MEL-5 > 100 µM | K562 > 100 µM | SF-295 > 100 µM | HT-29 > 100 µM | SNB-75 > 100 µM | CCRF-CEM 59.7 µM | TK-10 > 100 µM | UACC-62 > 100 µM | 786-0 > 100 µM | HL-60 > 100 µM | HCC 2998 > 100 µM | OVCAR-4 > 100 µM

NC(=O)CCC(CCC(N)=O)(CCC(N)=O)[N+](=O)[O-]
inactive: MOLT-4 > 100 µM | MDA-MB-231 > 100 µM | OVCAR-5 > 100 µM | SNB-19 60.8 µM | A549 > 100 µM | SF-539 > 100 µM | SK-MEL-5 > 100 µM | SF-295 > 100 µM | HT-29 > 100 µM | SNB-75 > 100 µM | CCRF-CEM > 10 µM | TK-10 > 100 µM | UACC-62 > 100 µM | 786-0 > 100 µM | HL-60 > 100 µM

COc1ccc(OC)c2c(Nc3ccc(S(=O)(=O)O)c4cc(S(=O)(=O)O)cc(S(=O)(=O)O)c34)cc(C)nc12
inactive: A498 > 100 µM | MOLT-4 > 100 µM | MDA-MB-231 > 100 µM | OVCAR-5 > 100 µM | A549 > 100 µM | SF-539 > 100 µM | SK-MEL-5 > 100 µM | K562 > 100 µM | SF-295 > 100 µM | HT-29 > 100 µM | SNB-75 > 100 µM | CCRF-CEM > 100 µM | TK-10 > 100 µM | UACC-62 > 100 µM | 786-0 > 100 µM | HL-60 > 100 µM | HCC 2998 10.8 µM | OVCAR-4 > 100 µM

O=S(=O)(O)c1ccc(O)c(/N=N/c2c(O)ccc3ccccc23)c1
inactive: A498 > 100 µM | MOLT-4 > 100 µM | MDA-MB-231 > 100 µM | OVCAR-5 > 100 µM | SNB-19 > 100 µM | A549 > 100 µM | SK-MEL-5 > 100 µM | K562 > 100 µM | SF-295 > 100 µM | HT-29 > 100 µM | SNB-75 > 100 µM | CCRF-CEM 36.6 µM | TK-10 > 100 µM | UACC-62 > 100 µM | 786-0 > 100 µM | OVCAR-4 > 100 µM

O=C1[C@@H]2C[C@@H](O)CN2C(=O)c2ccccc2N1CCCO
inactive: A498 > 100 µM | MOLT-4 82 µM | MDA-MB-231 > 100 µM | OVCAR-5 > 100 µM | SNB-19 > 100 µM | A549 > 100 µM | SF-539 > 100 µM | K562 > 100 µM | SF-295 > 100 µM | HT-29 > 100 µM | SNB-75 > 100 µM | TK-10 > 100 µM | UACC-62 > 100 µM | 786-0 > 100 µM

Clc1ccc2c(c1)CC1C[N+]3=C(CCCC3)C1=C2 (configuration not stated)
inactive: A498 72.1 µM | MOLT-4 > 100 µM | MDA-MB-231 44.8 µM | OVCAR-5 > 100 µM | SNB-19 48.3 µM | A549 39.6 µM | SK-MEL-5 50.4 µM | K562 75.3 µM | SF-295 28 µM | HT-29 36.6 µM | SNB-75 52 µM | CCRF-CEM 83 µM | TK-10 72.8 µM | UACC-62 > 100 µM | 786-0 > 100 µM | HL-60 40 µM | OVCAR-4 37.6 µM

O=C(O)CC(Cc1ccccc1Cl)C(=O)O (configuration not stated)
inactive: A498 > 100 µM | MOLT-4 > 100 µM | MDA-MB-231 > 100 µM | OVCAR-5 > 100 µM | SNB-19 > 100 µM | A549 > 100 µM | SK-MEL-5 > 100 µM | K562 > 100 µM | SF-295 > 100 µM | HT-29 > 100 µM | CCRF-CEM > 100 µM | TK-10 > 100 µM | UACC-62 > 100 µM | 786-0 > 100 µM | HCC 2998 > 100 µM | OVCAR-4 > 100 µM

O=C(/C=C/c1ccccc1O)c1ccc([N+](=O)[O-])cc1
inactive: A498 20.8 µM | MOLT-4 22.3 µM | OVCAR-5 22.1 µM | SNB-19 16.6 µM | A549 22.5 µM | SF-539 15.4 µM | SK-MEL-5 20.1 µM | K562 20.9 µM | SF-295 21.7 µM | HT-29 19.9 µM | SNB-75 7.8 µM | CCRF-CEM 15.8 µM | TK-10 26.7 µM | UACC-62 14.7 µM | 786-0 17.3 µM | SR 19.4 µM | HL-60 16.4 µM | HCC 2998 16.5 µM | OVCAR-4 12 µM

CC(C)OP(=O)(CN(C)/C(F)=N\C(F)(F)F)OC(C)C
inactive: A498 > 100 µM | MOLT-4 > 100 µM | MDA-MB-231 > 100 µM | OVCAR-5 > 100 µM | SNB-19 > 100 µM | A549 > 100 µM | SF-539 > 100 µM | SK-MEL-5 > 100 µM | K562 > 100 µM | SF-295 > 100 µM | HT-29 > 100 µM | SNB-75 > 100 µM | CCRF-CEM > 100 µM | TK-10 > 100 µM | UACC-62 > 100 µM | 786-0 > 100 µM | HL-60 63.8 µM | HCC 2998 > 100 µM

O=C(N[C@@H]1C=CCC[C@@H]1c1ccccc1)OCc1ccccc1
inactive: A498 19.1 µM | MOLT-4 13.1 µM | OVCAR-5 17.8 µM | SNB-19 32.7 µM | A549 25.6 µM | SF-539 18.9 µM | SK-MEL-5 17.9 µM | K562 23.7 µM | SF-295 20.4 µM | HT-29 23.7 µM | SNB-75 19.6 µM | CCRF-CEM 16.4 µM | TK-10 15.3 µM | UACC-62 14.1 µM | 786-0 18.7 µM | SR 15.1 µM | HL-60 11.6 µM | HCC 2998 20.6 µM | OVCAR-4 18.6 µM

C1CN2N3CCCC23C1 (configuration not stated)
inactive: A498 > 100 µM | MOLT-4 > 100 µM | OVCAR-5 > 100 µM | SNB-19 > 100 µM | A549 > 100 µM | SF-539 > 100 µM | SK-MEL-5 > 100 µM | K562 > 100 µM | SF-295 > 100 µM | HT-29 > 100 µM | SNB-75 > 100 µM | CCRF-CEM > 100 µM | TK-10 > 100 µM | UACC-62 > 100 µM | 786-0 > 100 µM | SR > 100 µM | HL-60 > 100 µM | HCC 2998 > 100 µM | OVCAR-4 > 100 µM

[N-]=[N+]=Nc1cc(=O)n(-c2ccccc2)c(=O)n1-c1ccccc1
inactive: MOLT-4 > 100 µM | MDA-MB-231 > 100 µM | OVCAR-5 > 100 µM | SNB-19 > 100 µM | A549 > 100 µM | SF-539 > 100 µM | SK-MEL-5 > 100 µM | K562 > 100 µM | SF-295 > 100 µM | HT-29 > 100 µM | SNB-75 > 100 µM | CCRF-CEM > 100 µM | TK-10 > 100 µM | UACC-62 67 µM | 786-0 > 100 µM | SR > 100 µM | OVCAR-4 > 100 µM

O=C1NC(=S)NC(=O)C1C(c1ccccc1[N+](=O)[O-])C1C(=O)NC(=S)NC1=O.c1ccncc1
inactive: A498 > 100 µM | MOLT-4 > 100 µM | MDA-MB-231 > 100 µM | OVCAR-5 > 100 µM | SNB-19 > 100 µM | A549 > 100 µM | SK-MEL-5 > 100 µM | K562 > 100 µM | SF-295 > 100 µM | HT-29 > 100 µM | CCRF-CEM > 100 µM | TK-10 > 100 µM | UACC-62 > 100 µM | 786-0 > 100 µM | HL-60 26.3 µM | OVCAR-4 > 100 µM

Cn1c(=O)c2c(nc3n2CC(=O)N3CCCCl)n(C)c1=O
inactive: A498 > 100 µM | MOLT-4 83.8 µM | MDA-MB-231 > 100 µM | OVCAR-5 > 100 µM | SNB-19 > 100 µM | A549 > 100 µM | SK-MEL-5 > 100 µM | K562 > 100 µM | SF-295 > 100 µM | HT-29 > 100 µM | SNB-75 > 100 µM | CCRF-CEM > 100 µM | TK-10 > 100 µM | UACC-62 > 100 µM | 786-0 > 100 µM | HL-60 > 100 µM | HCC 2998 > 100 µM | OVCAR-4 > 100 µM
